Like-named read-outs stand apart in the source and are kept apart here.
How the values were obtained:
Assay type in all cases: cell-based
[1] = system: Lactobacillus plantarum HAC03; experiment: in vitro Simulated Stomach Duodenum Passage (SSDP) probiotic survivability, lyophilized HAC03; settings: for viability at 100000 µM: Lactiplantibacillus plantarum
Protocol: The HAC03 strain was mixed with each of the single compositions and 1 mL of distilled water for 1 min. The compositions were formulated to have a final concentration of 0.1 M when dissolved in 1 ml of distilled water. Thereafter, 9 mL of distilled water adjusted to have a pH of 2.5 was added to each mixture. The pH was readjusted back to 2.5 in case of an increased pH due to the nature of some of the single ingredients (in order to not affect the survival of the probiotics). After adjusting the pH to 2.5, the tubes were incubated at 37° C. for 1 hour to apply the low-pH gastric stress condition. […] During the gastrointestinal tract assay, the samples were taken immediately, 1 hour, and […] after the incubation (t=0, 1, and 2). The probiotic survivability of each sample after gastric stress and bile stress was calculated by counting viable colonies.

[2] = system: Lactobacillus casei Lc-11; experiment: Bacterial adhesion to human enterocyte-like Caco-2/TC-7 cell line, lyophilized Lc-11; settings: 0.03 M, compared to the freeze-dried form
From the text: (§1) An examination was made to see whether the effect of reactivating lyophilized probiotics is applicable to various strains in this experimental example. In this regard, lyophilized Bifidobacterium longum Bl-05 (Dupont; hereinafter referred to as “Bl-05”), Lactobacillus plantarum Lp-115 (Dupont; hereinafter referred to as “Lp-115”), Lactobacillus casei Lc-11 (Dupont; hereinafter referred to as “Lc-11”), and 7-strain mixture (400B) (Dupont; hereinafter referred to as “MIX”) were reactivated with L-lysine and then assayed for their ability to adhere to the human enterocyte-like Caco-2/TC-7 cell line.
(§2) Lyophilizates of the three strains and the 7-strain mix were adjusted to 2×10^8 CFU/g and mixed with 0.03 M L-lysine or 0.03 M proline. The pellets were washed three time with 1× PBS and resuspended in 10 ml MEM cell culture media supplemented with 20% FBS, 2 mM glutamine, and 1% non-essential amino acids. A bacterial adhesion assay was performed according to the method of Botes et al. (Arch. Microbiol, 190 (2008), pp. 573-584) with some modifications. […] To quantify the number of bacteria attached to Caco-2/TC-7 cells, the samples were serially diluted, incubated on MRS agar plates for 48 hours (37° C.), and then counted to measure relative adhesion ratio (counts of attached bacteria in test groups to counts of attached bacteria in the control). […]

[3] = system: Bifidobacterium longum Bl-05; experiment: Bacterial adhesion to human enterocyte-like Caco-2/TC-7 cell line, lyophilized Bl-05; settings: 0.03 M, compared to the freeze-dried form
From the text: as §1, §2

[4] = system: Lactobacillus plantarum HAC03; experiment: Zeta potential of lyophilized probiotics mixed with single ingredients (screening); settings: 0.1 M ingredient, rehydrated 1 min, pH 2.5
Protocol: In this experimental example, Lactobacillus plantarum HAC03 (accession number: KCTC13242BP, the Korean Research Institute of Bioscience and Biotechnology) (hereinafter referred to as “HAC03”), which was described in Korean Patent Application No. 10-2017-0051574, was used as a probiotic strain.
Afterwards, 2 mL of pH 2.5 distilled water was added to each sample, the pH was re-adjusted using HCl 0.1 N, and 800 μl of the calibrated sample was loaded in DTS1080 cuvettes. The electrophoretic mobility was measured by the Zetaizer Nano ZEN 3600 (Malvern Panalytica, UK) after 2 minutes of equilibration and the Smoluchowski equation was used to convert the data into zetapotential values.
In this experiment, zeta potentials were measured at a pH of 2.5 in consideration of the highly acidic stomach environment, which is one of the initial hurdles that drastically reduce the survivability of the bacteria.

[5] = system: Lactobacillus plantarum Lp-115; experiment: Bacterial adhesion to human enterocyte-like Caco-2/TC-7 cell line, lyophilized Lp-115; settings: 0.03 M; L-lysine compared to the freeze-dried form, proline compared to L-lysine-reactivated
From the text: as §1, §2

7-strain mixture (400B) = experiment: Bacterial adhesion to human enterocyte-like Caco-2/TC-7 cell line, lyophilized 7-strain mixture; settings: 0.03 M, compared to the freeze-dried form
From the text: as §1, §2

| Structure (SMILES) | viability at 100000 µM ([1]; HAC03, 1 h, pH 2.5, read-out: Stomach Survivability (%)) [%] | viability at 100000 µM ([1]; HAC03, 2 h, pH 6, read-out: Duodenum Survivability (%)) [%] | Stomach log CFU/mL ([1]; Table 1, 0.1 M ingredient, pH 2.5, 37° C., 1 hour) [log CFU/mL] | Duodenum log CFU/mL ([1]; Table 1, 0.1 M ingredient, then bile salts (10% ox gall) and pH 6.0 synthetic duodenum juice, 2 hours) [log CFU/mL] | intestinal survivability (acid resistance and bile resistance) in words ([1]; Table 1, compared to fresh bacteria / distilled water) | bacterial cell adhesion to Caco-2/TC-7 (FIGS. 2A and 2E), in words [2] | bacterial cell adhesion to Caco-2/TC-7 (FIGS. 2B and 2F), in words [3] | zeta potential of lyophilized HAC03 mixed with the ingredient (sign, FIG. 1) [4] | bacterial cell adhesion to Caco-2/TC-7 (FIGS. 2C and 2G), in words [5] | bacterial cell adhesion to Caco-2/TC-7 (FIGS. 2D and 2H), in words (7-strain mixture (400B)) |
| --- | --- | --- | --- | --- | --- | --- | --- | --- | --- | --- |
| Cl.NCCCC[C@H](N)C(=O)O [L-Lysine hydrochloride, L-lysine hydrochloride] | 85.2 | 48.4 | 7.87 ± 0.07 | 7.62 ± 0.09 | increased in acid resistance and bile resistance | significantly increased bacterial cell adhesion | significantly increased bacterial cell adhesion | negative zeta potentials | significantly increased bacterial cell adhesion | significantly increased bacterial cell adhesion |
| O=C(O)[C@@H]1CCCN1 [proline, reference compound] |  |  |  |  |  | remarkably lower in adhesion | remarkably lower in adhesion | positive zeta potentials | remarkably lower in adhesion | remarkably lower in adhesion |
